Like-named read-outs stand apart in the source and are kept apart here.
What was measured:
Assay type in all cases: cell-based, human
[1] = tested on: Aβ; assay: Aβ pathology (Aβ amount in medium) in cerebral cortex nerve cells induced from FAD1 patient iPS cells
From the text: To perform induction from iPS cells to the cerebral cortex nerve early and with high reproducibility, iPS cells introduced with human Neurogenin 2 gene (NGN2) linked to doxycycline-inducible promoter by using PiggyBac were used (FIG. 1a, FIG. 1b, FIG. 4a and FIG. 4b). IPS cells prepared from 4 patients with familial Alzheimer's disease (FAD), 2 patients with sporadic Alzheimer's disease (SAD) and 4 healthy individuals (HC) were used. The iPS cells were established by the method described in Okita K et al., Nature. […]
(§1) To further study reproducibility of the candidate drugs obtained by the primary screening, secondary screening was conducted. In addition to Aβ40, Aβ42, Aβ42/40 ratio, Aβ38, Aβ43, sAPPα, sAPPβ were also studied and each numerical value was obtained.

[2] = tested on: Aβ42; assay: Aβ42 in FAD1 iPS cell-derived nerve cells (primary/secondary screening, dose dependency); conditions: secondary screening, FAD1 iPS cell-derived nerve cells, numerical value (Aβ change rate)
Method in brief: (§2)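 Cerebral cortex neurons were induced from FAD1 patient iPS cells by doxycycline-inducible NGN2, delivered by PiggyBac. Aβ40 and Aβ42 in the culture medium gave the Aβ42/40 ratio, with dose dependency examined in primary and secondary screens. The secondary screen also covered Aβ38, Aβ43, sAPPα and sAPPβ.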

[3] = tested on: Aβ42/40 ratio; assay: Aβ42/40 ratio in FAD1 iPS cell-derived nerve cells (primary/secondary screening, dose dependency); conditions: secondary screening
Method in brief: as §2

[4] = tested on: Aβ38; assay: Aβ38 in FAD1 iPS cell-derived nerve cells (secondary screening); parameters: scale not given here
Procedure: as §1

[5] = tested on: Aβ43; assay: Aβ43 in FAD1 iPS cell-derived nerve cells (secondary screening); parameters: scale not given here
Procedure: as §1

[6] = tested on: sAPPα; assay: sAPPα in FAD1 iPS cell-derived nerve cells (secondary screening); parameters: scale not given here; conditions: secondary screening, FAD1 iPS cell-derived nerve cells
Procedure: as §1

[7] = tested on: sAPPβ; assay: sAPPβ in FAD1 iPS cell-derived nerve cells (secondary screening); parameters: sAPPβ: scale not given here; conditions: for sAPPβ: secondary screening, FAD1 iPS cell-derived nerve cells
Procedure: as §1

[8] = tested on: Aβ40; conditions: secondary screening, FAD1 iPS cell-derived nerve cells, numerical value (Aβ change rate)
From the text: To perform induction from iPS cells to the cerebral cortex nerve early and with high reproducibility, iPS cells introduced with human Neurogenin 2 gene (NGN2) linked to doxycycline-inducible promoter by using PiggyBac were used (FIG. 1a, FIG. 1b, FIG. 4a and FIG. 4b). IPS cells prepared from 4 patients with familial Alzheimer's disease (FAD), 2 patients with sporadic Alzheimer's disease (SAD) and 4 healthy individuals (HC) were used. The iPS cells were established by the method described in Okita K et al., Nature.
Structural formulas (those in the form of salt or halide are also described as free form) and the general names of the candidate compounds are shown in Table 1.
as §1

NCCc1ccc(O)c(O)c1 [compound 90, DOPAMINE]
Aβ suppressive effect (dopamine series) ([1]; neuron derived from iPS cell (FAD1)): show effects
Aβ42 [2]: 0.88
Ratio Aβ42/40 [3]: 0.92
Aβ38 [4]: 1.01
Aβ43 [5]: 0.96
sAPPα [6]: 0.91
sAPPβ [7]: 0.95

BITOSCANATE [compound 123]
Aβ40 [8]: 0.93
Aβ42 [2]: 0.89
Ratio Aβ42/40 [3]: 0.96
Aβ38 [4]: 1.01
Aβ43 [5]: 1
sAPPα [6]: 0.76
sAPPβ [7]: 0.73

CC(C)C[C@H]1C(=O)N2CCC[C@H]2[C@]2(O)O[C@](NC(=O)[C@@H]3C=C4c5cccc6[nH]c(Br)c(c56)C[C@H]4N(C)C3)(C(C)C)C(=O)N12 [compound 52, BROMOCRIPTINE]
Aβ suppressive effect (dopamine series) [1]: show effects
Aβ42 [2]: 0.63
Ratio Aβ42/40 [3]: 0.64
Aβ38 [4]: 0.97
Aβ43 [5]: 0.65
sAPPα [6]: 1.18
action suggested from the sAPP metabolism ([7]; sAPPα, sAPPβ, sAPPβ/α ratio): BSI-like action
sAPPβ [7]: 0.79

CN[C@H](CC(C)C)C(=O)N[C@H]1C(=O)N[C@@H](CC(N)=O)C(=O)N[C@H]2C(=O)N[C@H]3C(=O)N[C@H](C(=O)N[C@H](C(=O)O)c4cc(O)cc(O)c4-c4cc3ccc4O)[C@H](O)c3ccc(c(Cl)c3)Oc3cc2cc(c3O[C@@H]2O[C@H](CO)[C@@H](O)[C@H](O)[C@H]2O[C@H]2C[C@](C)(N)[C@H](O)[C@H](C)O2)Oc2ccc(cc2Cl)[C@H]1O [compound 105, VANCOMYCIN]
Aβ40 [8]: 1.01
Aβ42 [2]: 1.06
Ratio Aβ42/40 [3]: 1.05
Aβ38 [4]: 1.29
Aβ43 [5]: 1.2
sAPPα [6]: 1.33
sAPPβ [7]: 1.36

CINCHONINE [compound 24]
Aβ40 [8]: 0.87
Aβ42 [2]: 0.88
Aβ43 [5]: 0.81
sAPPα [6]: 0.76
sAPPβ [7]: 0.68

TELITHROMYCIN [compound 108]
Aβ40 [8]: 0.99
Aβ42 [2]: 0.85
Aβ43 [5]: 0.84
sAPPα [6]: 0.71
sAPPβ [7]: 0.68

DESOXYCORTICOSTERONE [compound 98]
Aβ40 [8]: 1
Aβ42 [2]: 0.9
Ratio Aβ42/40 [3]: 0.9
Aβ38 [4]: 1.09
Aβ43 [5]: 0.89
sAPPα [6]: 0.88
sAPPβ [7]: 0.87

CEFAMANDOLE [compound 66]
Aβ40 [8]: 1.08
Aβ42 [2]: 0.97
Ratio Aβ42/40 [3]: 0.9
Aβ38 [4]: 1.11
Aβ43 [5]: 1.11
sAPPα [6]: 0.79
sAPPβ [7]: 0.78

RIFAXIMIN [compound 97]
Aβ40 [8]: 0.92
Aβ42 [2]: 0.84
Ratio Aβ42/40 [3]: 0.91
Aβ38 [4]: 1.09
Aβ43 [5]: 0.92
sAPPα [6]: 0.91
sAPPβ [7]: 0.95

CARBADOX [compound 29]
Aβ40 [8]: 0.84
Aβ42 [2]: 0.74
Ratio Aβ42/40 [3]: 0.88
Aβ38 [4]: 0.87
Aβ43 [5]: 0.76
sAPPα [6]: 0.86
sAPPβ [7]: 0.78
